Format in all cases: cell-based, human
The test system of assay [1] is lung cancer (A549) cell line. The assay can be described thus: MTT cytotoxicity assay, A549. The settings on record: ± SD, 1.56-200 µM. As to the method: (§1) DMSO solutions (10^−3 M) of the complexes (1–4) were subjected to molar conductance measurements at room temperature over 48 h, and the observed values are presented in Table S8. […] A comparative cytotoxicity assay explored the differences between nickel(II) complexes derived from thiosemicarbazone and dithiocarbazate ligands. Additionally, we investigated the influence of the coligands triphenylphosphine and pyridine in the complexes. The effectiveness of the compounds in inhibiting cell viability was concentration- and time-dependent. The analysis involved varying concentrations between 1.56 and 200 µM over 48 h using an MTT assay, with untreated cells serving as the control. Table 5 presents the IC50 values for the free ligands, synthesized complexes, and cisplatin, which served as reference compounds in this study.
(§2) The cytotoxic activity of the synthesized compounds was evaluated against human cell lines, including breast cancer (MCF–7), cisplatin-resistant ovarian cancer (A2780cis), lung cancer (A549), and nontumor lung cells (MRC–5). The A549 and MRC-5 cell lines were cultured in Dulbecco’s Modified Eagle’s Medium (DMEM), while the MCF-7 and A2780cis cell lines were cultured in Roswell Park Memorial Institute (RPMI–1640). Both cultures were supplemented with 10% fetal bovine serum (FBS), penicillin (100 IU/mL), streptomycin ([…]), and L-glutamine (2 mM). The cells were grown as monolayers in disposable 25 cm^2 flasks and incubated at 37 °C in a humidified atmosphere containing 5% CO2.
(§3) The cytotoxicity activity of the compounds was assessed using a colorimetric MTT (3-(4,5-dimethylthiazol-2-yl)-2,5-diphenyltetrazolium bromide) assay. The cells were trypsinized, counted, and adjusted to the appropriate concentration and were seeded into 96-well plates at a density of 1.5 × 10^4 cells/well. […] The absorbance was measured at 570 nm using a Varioskan LUX Multimode Microplate Reader (VL000D0, Waltham, MA 02451, USA). […] The half-maximal inhibitory concentration (IC50) values were determined from dose–response curves using GraphPad Prism version 8 software.

Assay [2] deals with nontumoral lung (MRC-5) cell line. In words: MTT cytotoxicity assay, MRC-5. The note with it: ± SD, 1.56-200 µM, nontumoral cells. As to the method:
as §1, §2, §3
(Tetrazolium dyes change colour on reduction, which living cells bring about.)

For assay [3], the system named is breast cancer (MCF-7) cell line. The assay can be described thus: MTT cytotoxicity assay, MCF-7. The settings on record: ± SD, 1.56-200 µM. As to the method: as §1, §2, §3
Assay [4] has as its system cisplatin-resistant ovarian cancer (A2780cis) cell line. The assay can be described thus: MTT cytotoxicity assay, A2780cis. The settings on record: 48 h, ± SD, 1.56-200 µM. As to the method:
as §1, §2, §3

SMILES strings stand for the structures.

As to `N.N.[Cl][Pt][Cl]` [Cisplatin, cisplatin, reference compound], the IC50 in assay [1] (48 h) turned out to be 11.5 µM; in assay [2] (48 h) it was 29.1 µM; in assay [3] (48 h) it was 14 µM; in assay [4], 37 µM.
Take `O=C(C/C(=N/NC(=S)Nc1ccccc1)C(F)(F)F)c1cccs1` [H2L^1, thenoyltrifluoroacetone–4–phenyl–3–thiosemicarbazone]: the half-maximal inhibitory concentration (IC50) in assay [1] (Homo sapiens, A549, 48 h) is 51.4 µM; in assay [2] (Homo sapiens, MRC5, 48 h) it was greater than 100 µM; in assay [3] (Homo sapiens, MCF7, 48 h), greater than 100 µM; in assay [4] (Homo sapiens, A2780cis), 42.8 µM.
`O=C(C/C(=N/NC(=S)SCc1ccccc1)C(F)(F)F)c1cccs1` [H2L^2, thenoyltrifluoroacetone–S–benzyldithiocarbazate]: the concentration for half-maximal inhibition (IC50) in assay [1] (Homo sapiens, A549, 48 h) was greater than 100 µM; in assay [2] (Homo sapiens, MRC5, 48 h), greater than 100 µM; in assay [3] (Homo sapiens, MCF7, 48 h) it was greater than 100 µM; in assay [4] (Homo sapiens, A2780cis) it was 78.9 µM.

A word on the IC50: it is the concentration at which inhibition is half-maximal.

For the origin of these results see publication PMC12430362, “Comparative Study of Ni(II) Complexes with Dithiocarbazate- and Thiosemicarbazone-Based Ligands: Synthesis, Crystal Structures, and Anticancer Activity” (Molecules, 2025).
